From patent publication US20060148907A1, “Topical antinflammatory preparations of y-terpinene” (priority 2002, published 2006)
“Also recorded” adds a separate entry of the source. Read-outs that look alike come from different tables or passages of the source.

Legend:
[1] = test system: skin erythemal response induced by solar simulated UV on the dorsal skin of human subjects; assay: Human study: reduction of skin erythemal response induced by solar simulated UV; assay type: in vivo; conditions: for Reduction in Erythema vs Base: 4 mg/sq cm immediately after irradiation and 4-5 hours later, erythema read 16-24 hours later; for statistical difference from the Base and UV alone (MED): p<0.05
[2] = test system: carrageenan induced hind paw edema; conditions: cited from earlier work
[3] = cited from earlier work
[4] = 0.25% in BP 1988 Cetomacrogol Cream
[5] = 0.5% in BP 1988 Cetomacrogol Cream
[6] = 1% (1.0%) in BP 1988 Cetomacrogol Cream

Row | SMILES | Reduction in Erythema vs Base [1, 4] | Reduction in Erythema vs Base [1, 5] | Reduction in Erythema vs Base [1, 6] | anti-inflammatory effectiveness in words (compared to Indomethacin) ([1]; 1% (1.0%) product) | anti-inflammatory effectiveness in words (compared to Indomethacin) ([1]; 0.25% product) | other results
1 | CC(C)=CCC[C@](C)(O)[C@@H]1CC=C(C)CC1 [(−) alpha-Bisabolol, (−)-alpha-bisabolol, reference compound] | 10% | 44% |  |  |  | statistical difference from the Base and UV alone (MED) ([1]; 0.50% product): statistically different
2 | COc1ccc2c(c1)c(CC(=O)O)c(C)n2C(=O)c1ccc(Cl)cc1 [Indomethacin, reference compound] |  |  | 66% | most effective anti-inflammatory |  | 
3 | CC1=CCC(O)(C(C)C)CC1 (stereo not drawn) [Terpinen-4-ol, terpinen-4-ol, reference compound] | 7% | 45% |  | good performance status |  | anti-inflammatory activity ([2]; dosages from 0.03 mg/paw to 6.0 mg/paw): significant anti-inflammatory activity; acute oral LD50 [3]: 1300 mg/kg
4 | CC1=CC=C(C(C)C)CC1 [α-terpinene] | 58% |  |  |  | good performance status | anti-inflammatory activity (inhibition of edema formation) ([2]; highest dose tested, 6 mg/paw): significant anti-inflammatory activity; anti-inflammatory activity (inhibition of edema formation) ([2]; lesser dosages than 6 mg/paw): relatively weak
5 | CC1=CCC(C(C)C)=CC1 [γ-terpinene] | 52% | 29% | 32% | statistically similar | high effective anti-inflammatory | statistical difference from the Base and UV alone (MED) ([1]; 0.25% product): statistically different; more erythema than Indomethacin ([1]; 1.0% product vs 1% Indomethacin): 98%; reducing UV erythema (MED) ([1]; 1.0% product vs UV alone (MED)): 39%; statistical difference from the Base and UV alone (MED) ([1]; 1.0% product): not significantly different from the Base; also recorded: significantly different from the MED; anti-inflammatory activity ([2]; dose not given): ineffective; also recorded: did not exhibit any significant anti-inflammatory activity
